Measurements from PubChem BioAssay (NCI).
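Method: 48-hour compound exposure of cells in 96-well plates, five concentrations, linear interpolation of endpoints. TGI marks complete inhibition of growth.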

Experiments:
Assay in all cases: NCI tumour cell line growth inhibition, 48 h
A498 renal = test system: A498 renal
A549 NSCLC = test system: A549 NSCLC
CAKI-1 renal = test system: CAKI-1 renal
CCRF-CEM leukemia = test system: CCRF-CEM leukemia
COLO 205 colon = test system: COLO 205 colon
DLD-1 colon = test system: DLD-1 colon
DMS 114 small cell lung = test system: DMS 114 small cell lung
DMS 273 small cell lung = test system: DMS 273 small cell lung
EKVX NSCLC = test system: EKVX NSCLC
HCC-2998 colon = test system: HCC-2998 colon
HCT-116 colon = test system: HCT-116 colon
HCT-15 colon = test system: HCT-15 colon
HL-60(TB) leukemia = test system: HL-60(TB) leukemia
HOP-18 NSCLC = test system: HOP-18 NSCLC
HOP-62 NSCLC = test system: HOP-62 NSCLC
HOP-92 NSCLC = test system: HOP-92 NSCLC
HT29 colon = test system: HT29 colon
IGROV1 ovarian = test system: IGROV1 ovarian
K-562 leukemia = test system: K-562 leukemia
KM12 colon = test system: KM12 colon
KM20L2 colon = test system: KM20L2 colon
LOX IMVI melanoma = test system: LOX IMVI melanoma
M19-MEL melanoma = test system: M19-MEL melanoma
MALME-3M melanoma = test system: MALME-3M melanoma
MCF7 breast = test system: MCF7 breast
MOLT-4 leukemia = test system: MOLT-4 leukemia
NCI-H226 lung = test system: NCI-H226 lung
NCI-H23 lung = test system: NCI-H23 lung
NCI-H460 lung = test system: NCI-H460 lung
NCI-H522 lung = test system: NCI-H522 lung
NCI/ADR-RES ovarian = test system: NCI/ADR-RES ovarian
OVCAR-3 ovarian = test system: OVCAR-3 ovarian
OVCAR-4 ovarian = test system: OVCAR-4 ovarian
OVCAR-5 ovarian = test system: OVCAR-5 ovarian
OVCAR-8 ovarian = test system: OVCAR-8 ovarian
P388 leukemia = test system: P388 leukemia
P388/ADR leukemia = test system: P388/ADR leukemia
RPMI-8226 leukemia = test system: RPMI-8226 leukemia
RXF 393 renal = test system: RXF 393 renal
SF-268 CNS = test system: SF-268 CNS
SF-295 CNS = test system: SF-295 CNS
SF-539 CNS = test system: SF-539 CNS
SK-MEL-2 melanoma = test system: SK-MEL-2 melanoma
SK-MEL-28 melanoma = test system: SK-MEL-28 melanoma
SK-MEL-5 melanoma = test system: SK-MEL-5 melanoma
SK-OV-3 ovarian = test system: SK-OV-3 ovarian
SN12C renal = test system: SN12C renal
SN12K1 renal = test system: SN12K1 renal
SNB-19 CNS = test system: SNB-19 CNS
SNB-75 CNS = test system: SNB-75 CNS
SNB-78 CNS = test system: SNB-78 CNS
SW-620 colon = test system: SW-620 colon
U251 CNS = test system: U251 CNS
UACC-257 melanoma = test system: UACC-257 melanoma
UACC-62 melanoma = test system: UACC-62 melanoma
UO-31 renal = test system: UO-31 renal
XF 498 CNS = test system: XF 498 CNS
786-0 renal = test system: 786-0 renal
ACHN renal = test system: ACHN renal
LXFL 529 NSCLC = test system: LXFL 529 NSCLC
M14 melanoma = test system: M14 melanoma
RXF-631 renal = test system: RXF-631 renal
SR leukemia = test system: SR leukemia
TK-10 renal = test system: TK-10 renal

## O=[N+]([O-])c1cc(C(F)(F)F)cc2c1SC1=Nc3ccccc3CN12
A498 renal
  TGI: > 100 µM
A549 NSCLC
  TGI: > 100 µM
CAKI-1 renal
  TGI: > 100 µM
CCRF-CEM leukemia
  TGI: > 100 µM
COLO 205 colon
  TGI: > 100 µM
DLD-1 colon
  TGI: > 100 µM
DMS 114 small cell lung
  TGI: > 100 µM
DMS 273 small cell lung
  TGI: > 100 µM
EKVX NSCLC
  TGI: > 100 µM
HCC-2998 colon
  TGI: > 100 µM
HCT-116 colon
  TGI: > 100 µM
HCT-15 colon
  TGI: > 100 µM
HL-60(TB) leukemia
  TGI: > 100 µM
HOP-18 NSCLC
  TGI: > 100 µM
HOP-62 NSCLC
  TGI: > 100 µM
HOP-92 NSCLC
  TGI: > 100 µM
HT29 colon
  TGI: > 100 µM
IGROV1 ovarian
  TGI: > 100 µM
K-562 leukemia
  TGI: > 100 µM
KM12 colon
  TGI: > 100 µM
KM20L2 colon
  TGI: > 100 µM
LOX IMVI melanoma
  TGI: > 100 µM
M19-MEL melanoma
  TGI: > 100 µM
MALME-3M melanoma
  TGI: > 100 µM
MCF7 breast
  TGI: > 100 µM
MOLT-4 leukemia
  TGI: > 100 µM
NCI-H226 lung
  TGI: > 100 µM
NCI-H23 lung
  TGI: > 100 µM
NCI-H460 lung
  TGI: > 100 µM
NCI-H522 lung
  TGI: > 100 µM
NCI/ADR-RES ovarian
  TGI: > 100 µM
OVCAR-3 ovarian
  TGI: > 100 µM
OVCAR-4 ovarian
  TGI: > 100 µM
OVCAR-5 ovarian
  TGI: > 100 µM
OVCAR-8 ovarian
  TGI: > 100 µM
P388 leukemia
  TGI: > 100 µM
P388/ADR leukemia
  TGI: > 100 µM
RPMI-8226 leukemia
  TGI: > 100 µM
RXF 393 renal
  TGI: > 100 µM
SF-268 CNS
  TGI: > 100 µM
SF-295 CNS
  TGI: > 100 µM
SF-539 CNS
  TGI: > 100 µM
SK-MEL-2 melanoma
  TGI: > 100 µM
SK-MEL-28 melanoma
  TGI: > 100 µM
SK-MEL-5 melanoma
  TGI: > 100 µM
SK-OV-3 ovarian
  TGI: > 100 µM
SN12C renal
  TGI: > 100 µM
SN12K1 renal
  TGI: > 100 µM
SNB-19 CNS
  TGI: > 100 µM
SNB-75 CNS
  TGI: > 100 µM
SNB-78 CNS
  TGI: > 100 µM
SW-620 colon
  TGI: > 100 µM
U251 CNS
  TGI: > 100 µM
UACC-257 melanoma
  TGI: > 100 µM
UACC-62 melanoma
  TGI: > 100 µM
UO-31 renal
  TGI: > 100 µM
XF 498 CNS
  TGI: > 100 µM

## CCc1cc2c(Nc3ccccc3)c3c(nc2s1)CCCC3
786-0 renal
  TGI: > 100 µM
A498 renal
  TGI: > 100 µM
A549 NSCLC
  TGI: > 100 µM
ACHN renal
  TGI: > 100 µM
CCRF-CEM leukemia
  TGI: > 100 µM
COLO 205 colon
  TGI: > 100 µM
DLD-1 colon
  TGI: > 100 µM
DMS 114 small cell lung
  TGI: > 100 µM
DMS 273 small cell lung
  TGI: > 100 µM
EKVX NSCLC
  TGI: > 100 µM
HCC-2998 colon
  TGI: > 100 µM
HCT-116 colon
  TGI: > 100 µM
HCT-15 colon
  TGI: > 100 µM
HL-60(TB) leukemia
  TGI: > 100 µM
HOP-18 NSCLC
  TGI: > 100 µM
HOP-62 NSCLC
  TGI: > 100 µM
HOP-92 NSCLC
  TGI: > 100 µM
IGROV1 ovarian
  TGI: > 100 µM
K-562 leukemia
  TGI: > 100 µM
KM12 colon
  TGI: > 100 µM
KM20L2 colon
  TGI: > 100 µM
LOX IMVI melanoma
  TGI: 42 µM
LXFL 529 NSCLC
  TGI: > 100 µM
M14 melanoma
  TGI: > 100 µM
M19-MEL melanoma
  TGI: > 100 µM
MALME-3M melanoma
  TGI: > 100 µM
MOLT-4 leukemia
  TGI: > 100 µM
NCI-H460 lung
  TGI: > 100 µM
OVCAR-3 ovarian
  TGI: > 100 µM
OVCAR-4 ovarian
  TGI: > 100 µM
OVCAR-5 ovarian
  TGI: > 100 µM
OVCAR-8 ovarian
  TGI: > 100 µM
RPMI-8226 leukemia
  TGI: 87 µM
RXF 393 renal
  TGI: > 100 µM
RXF-631 renal
  TGI: > 100 µM
SF-268 CNS
  TGI: > 100 µM
SF-295 CNS
  TGI: > 100 µM
SF-539 CNS
  TGI: > 100 µM
SK-MEL-2 melanoma
  TGI: > 100 µM
SK-MEL-28 melanoma
  TGI: > 100 µM
SK-MEL-5 melanoma
  TGI: > 100 µM
SK-OV-3 ovarian
  TGI: > 100 µM
SN12C renal
  TGI: > 100 µM
SNB-19 CNS
  TGI: > 100 µM
SNB-75 CNS
  TGI: 39.1 µM
SNB-78 CNS
  TGI: > 100 µM
SR leukemia
  TGI: 47.2 µM
SW-620 colon
  TGI: > 100 µM
TK-10 renal
  TGI: > 100 µM
U251 CNS
  TGI: > 100 µM
UACC-257 melanoma
  TGI: > 100 µM
UACC-62 melanoma
  TGI: > 100 µM
UO-31 renal
  TGI: > 100 µM
XF 498 CNS
  TGI: 85.1 µM

## NCCCC(N)(C(=O)O)C(F)F (configuration not stated)
A498 renal
  TGI: > 5000 µM
A549 NSCLC
  TGI: > 5000 µM
CAKI-1 renal
  TGI: > 5000 µM
CCRF-CEM leukemia
  TGI: > 1580 µM
COLO 205 colon
  TGI: > 5000 µM
DLD-1 colon
  TGI: > 5000 µM
DMS 114 small cell lung
  TGI: > 5000 µM
DMS 273 small cell lung
  TGI: > 5000 µM
EKVX NSCLC
  TGI: > 1260 µM
HCC-2998 colon
  TGI: > 5000 µM
HCT-116 colon
  TGI: > 5000 µM
HCT-15 colon
  TGI: > 5000 µM
HL-60(TB) leukemia
  TGI: > 5000 µM
HOP-18 NSCLC
  TGI: > 50 µM
HOP-62 NSCLC
  TGI: > 5000 µM
HOP-92 NSCLC
  TGI: > 5000 µM
HT29 colon
  TGI: > 5000 µM
IGROV1 ovarian
  TGI: > 5000 µM
K-562 leukemia
  TGI: > 5000 µM
KM12 colon
  TGI: > 5000 µM
KM20L2 colon
  TGI: > 5000 µM
LOX IMVI melanoma
  TGI: > 5000 µM
M19-MEL melanoma
  TGI: > 5000 µM
MALME-3M melanoma
  TGI: > 5000 µM
MCF7 breast
  TGI: > 5000 µM
MOLT-4 leukemia
  TGI: > 5000 µM
NCI-H226 lung
  TGI: > 5000 µM
NCI-H23 lung
  TGI: > 5000 µM
NCI-H460 lung
  TGI: > 5000 µM
NCI-H522 lung
  TGI: > 5000 µM
NCI/ADR-RES ovarian
  TGI: > 5000 µM
OVCAR-3 ovarian
  TGI: > 5000 µM
OVCAR-4 ovarian
  TGI: > 5000 µM
OVCAR-5 ovarian
  TGI: > 4800 µM
OVCAR-8 ovarian
  TGI: > 1090 µM
P388 leukemia
  TGI: > 5000 µM
P388/ADR leukemia
  TGI: > 5000 µM
RPMI-8226 leukemia
  TGI: > 5000 µM
RXF 393 renal
  TGI: > 5000 µM
SF-268 CNS
  TGI: > 5000 µM
SF-295 CNS
  TGI: > 5000 µM
SF-539 CNS
  TGI: > 5000 µM
SK-MEL-2 melanoma
  TGI: > 5000 µM
SK-MEL-28 melanoma
  TGI: > 5000 µM
SK-MEL-5 melanoma
  TGI: > 5000 µM
SK-OV-3 ovarian
  TGI: > 5000 µM
SN12C renal
  TGI: > 5000 µM
SN12K1 renal
  TGI: > 1580 µM
SNB-19 CNS
  TGI: > 5000 µM
SNB-75 CNS
  TGI: > 5000 µM
SNB-78 CNS
  TGI: > 5000 µM
SW-620 colon
  TGI: > 5000 µM
U251 CNS
  TGI: > 5000 µM
UACC-257 melanoma
  TGI: > 5000 µM
UACC-62 melanoma
  TGI: > 5000 µM
UO-31 renal
  TGI: > 5000 µM
